Laboratory results: the NIST ThermoML archive (doi:10.1016/j.jct.2016.06.001)

Settings: Liquid, Frequency=8 MHz, Pulse-echo method

CCC(C)O (configuration not stated) [butan-2-ol]
Settings | speed of sound [m/s]
253.15 K, 100 kPa | 1374.6
253.15 K, 5155 kPa | 1400.3
253.15 K, 10194 kPa | 1424.8
253.15 K, 15178 kPa | 1448.1
253.15 K, 20139 kPa | 1470.5
253.15 K, 25051 kPa | 1491.9
253.15 K, 30449 kPa | 1514.4
273.15 K, 100 kPa | 1301.2
273.15 K, 5150 kPa | 1329.2
273.15 K, 10187 kPa | 1355.8
273.15 K, 15226 kPa | 1381.1
273.15 K, 20096 kPa | 1404.6
273.15 K, 25052 kPa | 1427.7
273.15 K, 30040 kPa | 1450
293.15 K, 102 kPa | 1229.1
293.15 K, 5048 kPa | 1258.9
293.15 K, 10078 kPa | 1287.7
293.15 K, 15045 kPa | 1314.6
293.15 K, 20093 kPa | 1340.9
293.15 K, 25164 kPa | 1366
293.15 K, 29995 kPa | 1389
313.15 K, 100 kPa | 1156.3
313.15 K, 5081 kPa | 1189.2
313.15 K, 10051 kPa | 1220
313.15 K, 15034 kPa | 1249.2
313.15 K, 20050 kPa | 1277.2
313.15 K, 25148 kPa | 1304.3
313.15 K, 30041 kPa | 1329.3
333.15 K, 101 kPa | 1081.4
333.15 K, 5111 kPa | 1117.8
333.15 K, 10069 kPa | 1151.4
333.15 K, 15039 kPa | 1183
333.15 K, 20109 kPa | 1213.5
333.15 K, 25122 kPa | 1242.1
333.15 K, 30086 kPa | 1269.2
353.15 K, 119 kPa | 1003.7
353.15 K, 5050 kPa | 1043.6
353.15 K, 10149 kPa | 1081.5
353.15 K, 15213 kPa | 1116.5
353.15 K, 20040 kPa | 1147.9
353.15 K, 25218 kPa | 1179.7
353.15 K, 30032 kPa | 1207.7
